According to ChEMBL document CHEMBL5584340, “Discovery of Novel Antiosteoporosis Leads with Bone Resorption Inhibition and Anabolic Promotion through a Chemotype-Assembly Approach” (J Med Chem, 2024):
Calls of active or inactive are those of the source. The rule behind the calls is not given here.

Experiments:
BMDM [1] = assay: Anti-osteoclastogenic activity in M-CSF/RANKL-induced C57BL/6 mouse BMDM cells assessed as inhibition of M-CSF/RANKL-stimulated osteoclast differentiation measured after 5 days by TRAP staining based microscopic analysis; type: functional, cell-based; settings: C57BL/6, BMDM, 120 h
[2] = Cytotoxicity against mouse RAW264.7 cells incubated for 48 hrs by CCK-8 assay; type: toxicity, cell-based
BMDM [3] = assay: Anti-osteoclastogenic activity in M-CSF/RANKL-induced C57BL/6 mouse BMDM cells assessed as downregulation of ATP6VOD2 mRNA expression at 1 uM incubated for 7 days by RT-qPCR analysis; type: functional, cell-based; settings: time 7.0 day
BMDM [4] = assay: Anti-osteoclastogenic activity in M-CSF/RANKL-induced C57BL/6 mouse BMDM cells assessed as downregulation of C-Fos mRNA expression at 1 uM incubated for 7 days by RT-qPCR analysis; type: functional, cell-based; settings: time 7.0 day
BMDM [5] = assay: Anti-osteoclastogenic activity in M-CSF/RANKL-induced C57BL/6 mouse BMDM cells assessed as downregulation of CTSK mRNA expression at 1 uM incubated for 7 days by RT-qPCR analysis; type: functional, cell-based; settings: time 7.0 day
BMDM [6] = assay: Anti-osteoclastogenic activity in M-CSF/RANKL-induced C57BL/6 mouse BMDM cells assessed as downregulation of TRACP mRNA expression at 1 uM incubated for 7 days by RT-qPCR analysis; type: functional, cell-based; settings: time 7.0 day
C3H 10T1/2 [7] = assay: Induction of osteoblast differentiation in mouse C3H 10T1/2 cells at 1 uM incubated for 7 days by ALP staining based analysis; type: functional, cell-based; settings: time 7.0 day
C3H 10T1/2 [8] = assay: Induction of osteoblast mineralization in mouse C3H 10T1/2 cells assessed as increase in calcium deposition at 1 uM measured after 14 days by Alizarin Red S staining based analysis; type: functional, cell-based; settings: time 14.0 day
C3H 10T1/2 [9] = assay: Induction of osteoblastogenesis in mouse C3H 10T1/2 cells assessed as upregulation of ALP gene expression at 1 uM incubated for 7 days by RT-qPCR analysis; type: functional, cell-based; settings: time 7.0 day
C3H 10T1/2 [10] = assay: Induction of osteoblastogenesis in mouse C3H 10T1/2 cells assessed as upregulation of SP7 gene expression at 1 uM incubated for 7 days by RT-qPCR analysis; type: functional, cell-based; settings: time 7.0 day
C3H 10T1/2 [11] = assay: Induction of osteoblastogenesis in mouse C3H 10T1/2 cells assessed as upregulation of SPARC gene expression at 1 uM incubated for 7 days by RT-qPCR analysis; type: functional, cell-based; settings: time 7.0 day
C3H 10T1/2 [12] = assay: Induction of osteoclastogenesis in mouse C3H 10T1/2 cells assessed as upregulation of RANKL gene expression at 1 uM incubated for 7 days by RT-qPCR analysis; type: functional, cell-based; settings: time 7.0 day
[13] = Toxicity in OVX-induced osteoporosis C57BL/6 mouse model assessed as change in water intake at 30 mg/kg,po administrated for 1 week; type: organism-based; settings: in vivo, 168 h, time 1 weeks
[14] = Toxicity in OVX-induced osteoporosis C57BL/6 mouse model assessed as change in body weight at 30 mg/kg,po administrated for 1 week; type: organism-based; settings: in vivo, 168 h, time 1 weeks
[15] = Toxicity in OVX-induced osteoporosis C57BL/6 mouse model assessed as change in hair color at 30 mg/kg,po administrated for 1 week; type: organism-based; settings: in vivo, 168 h, time 1 weeks
[16] = Toxicity in OVX-induced osteoporosis C57BL/6 mouse model assessed as change in mental state at 30 mg/kg,po administrated for 1 week; type: organism-based; settings: in vivo, 168 h, time 1 weeks
[17] = Toxicity in OVX-induced osteoporosis C57BL/6 mouse model assessed as change in stool state at 30 mg/kg,po administrated for 1 week; type: organism-based; settings: in vivo, 168 h, time 1 weeks
[18] = Toxicity in OVX-induced osteoporosis C57BL/6 mouse model assessed as change in urine color at 30 mg/kg,po administrated for 1 week; type: organism-based; settings: in vivo, 168 h, time 1 weeks
Mus musculus [19] = assay: Anti-osteoporosis activity in OVX-induced osteoporosis C57BL/6 mouse model assessed as prevention of bone loss in femur at 10 mg/kg,po administrated for 4 weeks by Micro-CT analysis; type: functional, organism-based
Mus musculus [20] = assay: Anti-osteoporosis activity in OVX-induced osteoporosis C57BL/6 mouse model assessed as increase in BV/TV in femur at 10 mg/kg,po administrated for 4 weeks by Micro-CT analysis; type: functional, organism-based
Mus musculus [21] = assay: Anti-osteoporosis activity in OVX-induced osteoporosis C57BL/6 mouse model assessed as increase in […] in femur at 10 mg/kg,po administrated for 4 weeks by Micro-CT analysis; type: functional, organism-based
Mus musculus [22] = assay: Anti-osteoporosis activity in OVX-induced osteoporosis C57BL/6 mouse model assessed as increase in trabecular number in femur at 10 mg/kg,po administrated for 4 weeks by Micro-CT analysis; type: functional, organism-based
Mus musculus [23] = assay: Anti-osteoporosis activity in OVX-induced osteoporosis C57BL/6 mouse model assessed as increase in trabecular thickness in femur at 10 mg/kg,po administrated for 4 weeks by Micro-CT analysis; type: functional, organism-based
Mus musculus [24] = assay: Anti-osteoporosis activity in OVX-induced osteoporosis C57BL/6 mouse model assessed as decrease in serum CTX-I level at 10 mg/kg,po administrated for 4 weeks; type: functional, organism-based
Mus musculus [25] = assay: Anti-osteoporosis activity in OVX-induced osteoporosis C57BL/6 mouse model assessed as increase in serum osteocalcin level at 10 mg/kg,po administrated for 4 weeks; type: functional, organism-based
Mus musculus [26] = assay: Anti-osteoporosis activity in OVX-induced osteoporosis C57BL/6 mouse model assessed as increase in serum PINP level at 10 mg/kg,po administrated for 4 weeks; type: functional, organism-based
[27] = Toxicity in OVX-induced osteoporosis C57BL/6 mouse model assessed as change in serum ALT level at 10 mg/kg,po administrated for 4 week; type: organism-based; settings: in vivo, 672 h, time 4 weeks
[28] = Toxicity in OVX-induced osteoporosis C57BL/6 mouse model assessed as change in serum AST level at 10 mg/kg,po administrated for 4 week; type: organism-based; settings: in vivo, 672 h, time 4 weeks
[29] = Toxicity in OVX-induced osteoporosis C57BL/6 mouse model assessed as change in serum creatinine level at 10 mg/kg,po administrated for 4 week; type: organism-based; settings: in vivo, 672 h, time 4 weeks
[30] = Toxicity in OVX-induced osteoporosis C57BL/6 mouse model assessed as change in serum urea nitrogen level at 10 mg/kg,po administrated for 4 week; type: organism-based; settings: in vivo, 672 h, time 4 weeks
[31] = Toxicity in OVX-induced osteoporosis C57BL/6 mouse model assessed as change in serum total cholesterol level at 10 mg/kg,po administrated for 4 week; type: organism-based; settings: in vivo, 672 h, time 4 weeks
[32] = Toxicity in OVX-induced osteoporosis C57BL/6 mouse model assessed as change in serum triglyceride level at 10 mg/kg,po administrated for 4 week; type: organism-based; settings: in vivo, 672 h, time 4 weeks
BMDM [33] = assay: Anti-osteoclastogenic activity in M-CSF/RANKL-induced C57BL/6 mouse BMDM cells assessed as fold change in inhibition of M-CSF/RANKL-stimulated osteoclast differentiation at 10 uM measured after 5 days by TRAP staining based microscopic analysis relative to control; type: functional; settings: time 5 day

For `O=C(O)c1cc2ccccc2cc1C(=O)Nc1nc2ccccc2s1`, the IC50 (BMDM [1]) was 0.4 µM, the CC50 at 48 h [2] was 65.5 µM and the Activity (BMDM [3]) was “Active”. For the same compound, the Activity (BMDM [4]) was “Active”, the Activity (BMDM [5]) was “Active” and the Activity (BMDM [6]) was “Active”. The Activity (C3H 10T1/2 [7]) was “Active”, the Activity (C3H 10T1/2 [8]) was “Active” and the Activity (C3H 10T1/2 [9]) was “Active”. The Activity (C3H 10T1/2 [10]) was “Active”, the Activity (C3H 10T1/2 [11]) was “Active” and the Activity (C3H 10T1/2 [12]) was “inactive”. For the same compound, the Activity [13] was “Non-Toxic”, the Activity [14] was “Non-Toxic” and the Activity [15] was “Non-Toxic”. For the same compound, the Activity [16] was “Non-Toxic”, the Activity [17] was “Non-Toxic” and the Activity [18] was “Non-Toxic”. The Activity (Mus musculus [19]) was “Active”, the Activity (Mus musculus [20]) was “Active” and the Activity (Mus musculus [21]) was “Active”. The Activity (Mus musculus [22]) was “Active”, the Activity (Mus musculus [23]) was “Active” and the Activity (Mus musculus [24]) was “Active”. For the same compound, the Activity (Mus musculus [25]) was “Active”, the Activity (Mus musculus [26]) was “Active” and the Activity [27] was “Non-Toxic”. The Activity [28] was “Non-Toxic”, the Activity [29] was “Non-Toxic” and the Activity [30] was “Non-Toxic”. The Activity [31] was “Non-Toxic”, the Activity [32] was “Non-Toxic” and the “fold change (FC)” value (BMDM [33]) was 21.25.
